The values below come from US20090233930A9, “Novel 2-Amino-Imidazole-4-One Compounds and Their Use in the Manufacture of a Medicament to Be Used in the Treatment of Cognitive Impairment, Alzheimer's Disease, Neurodegeneration and Dementia” (ASTRAZENECA AB, priority 2005, published 2009).

The structures appear in SMILES notation. Counter-ions that a name gives are not always drawn.

The target of this experiment is T1, human β-Secretase (Homo sapiens, UniProt P56817).
T1 construct: The soluble part of the human β-Secretase (AA 1-AA 460) was cloned; made in house
Briefly: TR-FRET assay. The experiment is classed as biochemical. Particulars: sBACE truncated form, substrate (Europium)CEVNLDAEFK(Qsy7) 100 nM, pH 4.5. As to the method:
The enzyme used in the IGEN Cleavage-, Fluorescent-, TR-FRET- and the BiaCore assay is described as follows:
The soluble part of the human β-Secretase (AA 1-AA 460) was cloned into the ASP2-Fc10-1-IRES-GFP-neoK mammalian expression vector. The gene was fused to the Fc domain of IgG1 (affinity tag) and stably cloned into HEK 293 cells. Purified sBACE-Fc is stored in Tris buffer, pH 9.2 and has a purity of 95%.
Dilute the enzyme (truncated form) to 6 μg/mL (stock 1.3 mg/mL) and the substrate (Europium)CEVNLDAEFK(Qsy7) to 200 nM (stock 60 μM) in reaction buffer (NaAcetate, chaps, triton x-100, EDTA pH4.5). The Biomek FX is used for all liquid handling and the enzyme and substrate solutions are kept on ice until they are placed in Biomek FX. Enzyme (9 μl) is added to the plate then 1 μl of compound in dimethylsulphoxide is added, mixed and pre-incubated for 10 minutes. Substrate (10 μl) is then added, mixed and the reaction proceeds in the dark for 15 minutes at room temperature. The reaction is stopped with the addition of Stop solution (7 μl, NaAcetate pH 9). The fluorescence of the product is measured on a Victor II plate reader with an excitation wavelength of 340 nm and an emission wavelength of 615 nm. The assay is done in a Costar 384 well round bottom, low volume, non-binding surface (Corning #3676). […]
Background: In TR-FRET formats the signal depends on donor and acceptor labels being close together.

T1 sequence (P56817 22-460): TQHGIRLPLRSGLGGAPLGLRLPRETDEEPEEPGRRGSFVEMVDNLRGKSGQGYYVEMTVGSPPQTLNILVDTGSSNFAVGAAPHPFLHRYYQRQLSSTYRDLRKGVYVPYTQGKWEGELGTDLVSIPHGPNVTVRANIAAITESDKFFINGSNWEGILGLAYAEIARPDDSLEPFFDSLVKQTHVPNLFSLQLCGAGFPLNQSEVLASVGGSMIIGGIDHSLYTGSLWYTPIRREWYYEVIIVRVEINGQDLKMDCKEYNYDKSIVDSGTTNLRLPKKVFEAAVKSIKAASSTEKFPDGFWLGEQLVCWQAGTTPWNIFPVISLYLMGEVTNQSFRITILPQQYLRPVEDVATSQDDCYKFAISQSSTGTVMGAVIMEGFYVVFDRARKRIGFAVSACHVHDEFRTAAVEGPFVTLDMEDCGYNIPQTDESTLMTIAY

For orientation: IC50 means the concentration that inhibits the measured activity by half. A higher IC50 goes with lower potency. As for `COc1ccc(OS(=O)(=O)C(F)(F)F)c(-c2cccc(C3(c4ccccc4)N=C(N)N(C)C3=O)c2)c1` (centres unmarked) [Example 26, 3′-(2-Amino-1-methyl-5-oxo-4-phenyl-4,5-dihydro-1H-imidazol-4-yl)-5-methoxybiphenyl-2-yl trifluoromethanesulfonate hydrochloride], the IC50 stood at 743 nM.

Consider `COc1cccc(-c2cccc(C3(c4cccc(OS(=O)(=O)C(F)(F)F)c4)N=C(N)N(C)C3=O)c2)c1` (centres unmarked) [Example 45, 3-[2-Amino-4-(3′-methoxybiphenyl-3-yl)-1-methyl-5-oxo-4,5-dihydro-1H-imidazol-4-yl]phenyl trifluoromethanesulfonate hydrochloride], for which 258 nM corresponded to half-maximal inhibition (IC50).
